Source: patent US7662820B2, “Dipterinyl calcium pentahydrate (DCP) and therapeutic methods based thereon” (SanRX Pharmaceuticals, Inc., priority 2006, dated 2010)

Assays:
[1] = system: MDA-MB-231 human tumor xenographs; test: Antitumor efficacy in nude mice with MDA-MB-231 human tumor xenographs; format: in vivo, athymic nude (nu/nu) mice; conditions: for inhibition of MDA-MB-231 xenograph growth (Relative Tumor Volume): nude mice, versus untreated control; for inhibition of MDA-MB-231 xenograph growth (Relative Tumor Volume) / anti tumor efficacy compared with original CaPterin, (1:4 mol:mol) calcium pterin: oral gavage once daily, FIG. 1
Excerpt: FIGS. 1A and 1B (with SEMs): Twenty-nine athymic nude (nu/nu) female mice, ages 3-4 weeks, were inoculated with 10×10^6 MDA-MB-231 cancer cells subcutaneously into the right flank of each mouse. […] Four mice were assigned as controls. Four mice with outlying tumor sizes or non-tumor takes were subsequently excluded. […] The control group was untreated.
Cell Line Propagation and Inoculation: The MDA-MB-231 human breast tumor cell lines were supplied by SRI International (Menlo Park, Calif.) and propagated using standard in vitro cell expansion methods. Briefly, cells were grown in L-15 media from Gibco (Cat. No. 11415-064) supplemented with 2 mM L-Glutamine and 10% Fetal Bovine Serum (FBS). The cells were cultured in an incubator with 5% C02, 37.50C, and 80% humidity. Cells were harvested with 0.25% (w/v) Trypsin-0.03% (w/v) EDTA solution. Cells were prepared for injection by standard methods to appropriate concentrations. Animals were temporarily restrained but not anesthetized for the inoculation of the tumor cells. Animals were subcutaneously injected with the tumor cells in a 100-200 μl volume.
Control groups were untreated. Daily dosing was for 7 days per week. Animals were restrained but not anesthetized for oral dosing.
Tumor Growth Rate Measurements: Each animal was individually tracked for tumor growth by external caliper measurements of protruding tumor. Primary tumor sizes were measured using calipers and an approximate tumor volume calculated using the formula 1/2 (a×b2), where b was the smaller of two perpendicular diameters.
For each group, the mean and standard error of the mean (SEM) of the ratio V/Vo, Relative Tumor Volume (RTV), were plotted as a function of treatment time after inoculation. V0 was the tumor volume at Day 0, when treatment began. Time course statistical analyses based upon repeated measures ANOVA models were used (StatView SE+Graphics, v 1.03).

tumor = conditions: in vivo; cited from earlier work
sarcoma = conditions: mice; cited from earlier work
[2] = nude mice treated with DCP, FIG. 3
Description: Twenty-nine athymic nude were each injected subcutaneously with 10×10^6 MDA-MB-231 cancer cells into the right flank. When tumors reached 3-5 mm in size, the mice were divided into five treatment groups of five each and a control group of four mice. Four of these with outlying tumor sizes or non-tumor takes were excluded shortly after treatment began: one each from the (1:4 mol:mol) calcium pterin group, the (1:2 mol:mol) calcium pterin group, the DCP (69 mg/kg/day) group, and one from the control group. Experimental groups were treated by oral gavage once daily with the indicated test suspensions or solutions. Control groups were untreated. Daily dosing was for 7 days per week. Animals were restrained but not anesthetized for oral dosing. Tumors were measured twice weekly with calipers and body weights taken twice weekly on the day of tumor measurements. Blood was collected from all animals via cardiac puncture at termination (after 70 to 98 days of treatment) and processed to EDTA plasma for analysis.

Structure (SMILES): O.O.[Ca+2].[Cl-].[Cl-] [calcium chloride dihydrate, reference compound]
- inhibition of MDA-MB-231 xenograph growth (Relative Tumor Volume) [1]: significantly inhibit

Structure (SMILES): Nc1nc2[nH]c(=O)cnc2c(=O)[nH]1 [Isoxanthopterin]
- tumor growth (tumor): inhibit tumor growth

Structure (SMILES): Nc1nc(=O)c2[nH]c(=O)cnc2[nH]1 [Xanthopterin]
- sarcoma growth (sarcoma): inhibit sarcoma growth

Structure (SMILES): Nc1nc([O-])c2nccnc2n1.Nc1nc([O-])c2nccnc2n1.[Ca+2] [DCP, dipterinyl calcium pentahydrate]
- weight loss [2]: no significant weight loss
- anti tumor efficacy compared with original CaPterin, (1:4 mol:mol) calcium pterin ([1]; DCP at 23 mg/kg/day): significantly greater anti tumor efficacy
- anti tumor efficacy compared with original CaPterin, (1:4 mol:mol) calcium pterin ([1]; DCP at 69 mg/kg/day): comparable efficacy
- inhibition of MDA-MB-231 xenograph growth (Relative Tumor Volume) [1]: significantly inhibit
- inhibition of MDA-MB-231 xenograph tumors compared with (1:4 mol:mol) calcium pterin [CaPterin] ([1]; oral, dose not stated (conclusion)): significantly greater
